Nine compounds from US20100029710A1, “COMPOUNDS HAVING BOTH ANGIOTENSIN II RECEPTOR ANTAGONISM AND PPARy ACTIVATING ACTIVITIES” (Pfizer Products Inc., priority 2006, published 2010) can be followed below.

The target in assay [1] is T1, Human recombinant AT1 receptor (Homo sapiens, UniProt P30556).
T1 construct: purchased
T1 sequence (P30556 1-359): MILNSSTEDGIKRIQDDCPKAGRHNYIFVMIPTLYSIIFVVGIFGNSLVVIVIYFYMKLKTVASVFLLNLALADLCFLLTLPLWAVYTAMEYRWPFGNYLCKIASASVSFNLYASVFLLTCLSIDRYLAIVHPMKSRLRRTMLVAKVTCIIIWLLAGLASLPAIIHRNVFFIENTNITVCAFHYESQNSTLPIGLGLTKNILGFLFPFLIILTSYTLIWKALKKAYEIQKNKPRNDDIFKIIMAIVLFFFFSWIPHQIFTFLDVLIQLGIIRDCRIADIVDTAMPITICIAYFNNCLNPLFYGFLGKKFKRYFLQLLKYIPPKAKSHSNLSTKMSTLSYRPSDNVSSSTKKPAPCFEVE
Nature of the assay: AT1 receptor radioligand binding (flashplate). To be noted: 125I Sar1,Ile8-Angiotensin II radioligand. Here is the method:
Angiotensin II receptor antagonist activity may be determined using commercially available flashplates coated with the AT1 or AT2 receptor which provide a rapid and high throughput means to evaluate compounds compared to traditional filtration based assays (Regina M. Van Der Hee et al., Journal of Biomolecular Screening 10(2); 2005; 118-126).
AT1 receptor affinity was determined in a radioligand binding format using commercially available flashplate technology. Human recombinant AT1 receptor were coated on the wells of a 96 well flashplate and test compounds were diluted and added to wells at a final concentration range of 50 μM to 1 μM. Total binding was determined in the absence of compound and non-specific binding in the presence of 10 μM cold Angiotensin II. ^125I labeled Sar^1, Ile^8-Angiotensin II was added to all wells at Kd concentration and left for 2 hours at room temperature to equilibrate. Plates were read on a TopCount (Perkin Elmer) and concentration-response curves constructed using commercial curve fitting software. The Ki was determined via interpolation and the use of the Cheng-Prussof equation.

The target in assay [2] is T2, human PPARγ LBD bound to Gal4 DBD (Homo sapiens, UniProt P37231).
T2 construct: expressed in transfected cells; host or cells: HepG2
T2 sequence (P37231 238-503 limits assumed): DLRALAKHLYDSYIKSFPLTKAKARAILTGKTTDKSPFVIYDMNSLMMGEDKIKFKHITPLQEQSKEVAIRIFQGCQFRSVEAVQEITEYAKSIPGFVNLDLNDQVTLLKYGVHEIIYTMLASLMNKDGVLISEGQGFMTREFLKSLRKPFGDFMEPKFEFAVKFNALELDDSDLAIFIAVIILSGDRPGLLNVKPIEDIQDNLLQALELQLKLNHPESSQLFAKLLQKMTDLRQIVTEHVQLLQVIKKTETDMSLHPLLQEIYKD
Nature of the assay: PPARγ transfection luciferase reporter assay in HepG2 cells. Conditions: for Emax: HepG2, 24 h, compared to full agonist response (standard TZD full agonist), read-out: PPARγ % activation; for EC50: HepG2, 24 hours exposure. In kind it is cell-based. Here is the method:
PPARγ agonist activity may be determined by a cell line transiently transfected with PPARγ bound to a DNA binding domain that controls luciferase expression. The degree of receptor agonism is measured by the amount of luciferase activity after compound treatment. The ratio of treated cells over vehicle control cells provides a measure of fold activation and allows an EC50 (shown in tables I and II as […] EC50) and % activation to be calculated
A human hepatocellular carcinoma cell line (HepG2) was subcultured into dishes and transiently transfected with DNA to allow expression of human PPARγ LBD bound to Gal4 DBD. Luciferase reporter gene and β-galactosidase control genes were co-transfected to enable activity to be measured. After 24 hours, cells were exposed to compounds in the concentration range of 0.1 nM-100 μM and left for a further 24 hours. Luciferase activity is determined by luminometry and PPARγ activation is expressed as a ratio of luciferase activity to β-galactosidase activity to account for transfection efficiency. Potency is described by an EC50 defined as the concentration of compound producing receptor activation equivalent to 50% of the maximum for that compound (shown in Table I as transfection EC50). The maximum fold activation is a measure of efficacy and is expressed as a percentage of a reference full agonist run in the same assay. Efficacy is described by % activation of receptor relative to a standard thiazolidinedione (TZD) full agonist.

As to `CCc1nc2c(C)cc(CC[C@H](O)CC)nc2n1[C@H]1CCc2cc(-c3ccccc3-c3nnn[nH]3)ccc21` [Example 45, (R)-1-(3-((1S)-5-(2-(1H-tetrazol-5-yl)phenyl)-2,3-dihydro-1H-inden-1-yl)-2-ethyl-7-methyl-3H-imidazo[4,5-b]pyridin-5-yl)pentan-3-ol], the IC50 in assay [1] was found to be 1.1 nM. Also, in assay [2], the Emax worked out at 32% and the EC50 was determined as 140 nM.

As to `CCCc1nc2c(C)cc(CC[C@H](C)O)nc2n1[C@H]1CCc2cc(-c3ccccc3-c3nnn[nH]3)ccc21` [Example 41, (S)-4-(3-((1S)-5-(2-(1H-tetrazol-5-yl)phenyl)-2,3-dihydro-1H-inden-1-yl)-7-methyl-2-propyl-3H-imidazo[4,5-b]pyridin-5-yl)butan-2-ol], the IC50 in assay [1] is 0.9 nM. Besides, in assay [2], the Emax came out at 21% and the EC50 came to 965 nM.

`CCc1nc2c(C)cc(Cc3ccccn3)nc2n1[C@H]1CCc2cc(-c3ccccc3-c3nnn[nH]3)ccc21` [Example 2, 3-((1S)-5-(2-(1H-tetrazol-5-yl)phenyl)-2,3-dihydro-1H-inden-1-yl)-2-ethyl-7-methyl-5-(pyridin-2-ylmethyl)-3H-imidazo[4,5-b]pyridine]: in assay [1], the IC50 was found to be 3.5 nM. Moreover, in assay [2], the Emax is 29% and the EC50 came to 105 nM.

Regarding `CCc1nc2c(C)cc(CC[C@@](C)(O)C(C)C)nc2n1[C@H]1CCc2cc(-c3ccccc3-c3nnn[nH]3)ccc21` [Example 55, (R)-1-(3-((1S)-5-(2-(1H-tetrazol-5-yl)phenyl)-2,3-dihydro-1H-inden-1-yl)-2-ethyl-7-methyl-3H-imidazo[4,5-b]pyridin-5-yl)-3,4-dimethylpentan-3-ol], the IC50 in assay [1] is 2.4 nM. In addition, in assay [2], the Emax stood at 38% and the response was half-maximal at 150 nM (EC50).

With `CCc1nc2c(C)cc(CCc3ccccn3)nc2n1[C@H]1CCc2cc(-c3ccccc3-c3nnn[nH]3)ccc21` [Example 25, 3-((1S)-5-(2-(1H-tetrazol-5-yl)phenyl)-2,3-dihydro-1H-inden-1-yl)-2-ethyl-7-methyl-5-(2-(pyridin-2-yl)ethyl)-3H-imidazo[4,5-b]pyridine], the IC50 in assay [1] stood at 2.4 nM. Besides, in assay [2], the Emax was 26% and the EC50 turned out to be 180 nM.

Regarding `CCCc1nc2c(C)cc(CCC(C)(C)O)nc2n1[C@H]1CCc2cc(-c3ccccc3-c3nnn[nH]3)ccc21` [Example 35, 4-(3-((1S)-5-(2-(1H-tetrazol-5-yl)phenyl)-2,3-dihydro-1H-inden-1-yl)-7-methyl-2-propyl-3H-imidazo[4,5-b]pyridin-5-yl)-2-methylbutan-2-ol], in assay [1], the IC50 was determined as 0.5 nM. In assay [2], the Emax worked out at 23% and the EC50 worked out at 390 nM.

Regarding `CCCc1nc2c(C)cc(CCC(C)(O)CC)nc2n1[C@H]1CCc2cc(-c3ccccc3-c3nnn[nH]3)ccc21` (stereo partly drawn) [Example 50, 1-(3-((1S)-5-(2-(1H-tetrazol-5-yl)phenyl)-2,3-dihydro-1H-inden-1-yl)-7-methyl-2-propyl-3H-imidazo[4,5-b]pyridin-5-yl)-3-methylpentan-3-ol], the IC50 in assay [1] was found to be 1.7 nM. Besides, in assay [2], the Emax is 30% and the EC50 was 415 nM.

Regarding `CCc1nc2c(C)cc(CCCO)nc2n1[C@H]1CCc2cc(-c3ccccc3-c3nnn[nH]3)ccc21` [Example 47, 3-(3-((1S)-5-(2-(1H-tetrazol-5-yl)phenyl)-2,3-dihydro-1H-inden-1-yl)-2-ethyl-7-methyl-3H-imidazo[4,5-b]pyridin-5-yl)propan-1-ol], in assay [1], the IC50 is 1.3 nM. In assay [2], the Emax stood at 34% and a half-maximal effect (EC50) was put at 550 nM.

Regarding `CCc1nc2c(C)cc([C@H](O)C(C)C)nc2n1[C@H]1CCc2cc(-c3ccccc3-c3nnn[nH]3)ccc21` [Example 11, (R)-1-(3-((1S)-5-(2-(1H-tetrazol-5-yl)phenyl)-2,3-dihydro-1H-inden-1-yl)-2-ethyl-7-methyl-3H-imidazo[4,5-b]pyridin-5-yl)-2-methylpropan-1-ol], the IC50 in assay [1] amounted to 16 nM. Moreover, in assay [2], the Emax is 39% and the response was half-maximal at 440 nM (EC50).
